From patent publication US10287297B2, “Epoxyazulene derivatives useful for treating cancer and diabetes” (The United States of America, as represented by the …, priority 2015, dated 2019)

Experiments:
Type in all cases: cell-based
[1] = system: CCRF-CEM; assay: NCI 60 cell assay, leukemia CCRF-CEM; conditions: Homo sapiens, 48 h, drug exposure two days, SRB endpoint, read-out: GI-50 value
Method: (§1) Samples were tested in the standard National Cancer Institute 60-cell line protocol. First, they were tested against all 60 cell lines in a single final concentration of 10 micromolar. Then, they were separately tested in five 10-fold dilutions. The drug exposure was two days, with an SRB endpoint.

[2] = system: HL-60(TB); assay: NCI 60 cell assay, leukemia HL-60(TB); conditions: Homo sapiens, 48 h; HL-60(TB) (leukemia); drug exposure two days, SRB endpoint; read-out: GI-50 value
Method: as §1

[3] = system: MOLT-4; assay: NCI 60 cell assay, leukemia MOLT-4; conditions: Homo sapiens, 48 h; MOLT-4 (leukemia); drug exposure two days, SRB endpoint; read-out: GI-50 value
Method: as §1

[4] = system: SR; assay: NCI 60 cell assay, leukemia SR; conditions: Homo sapiens, 48 h, drug exposure two days, SRB endpoint, read-out: GI-50 value
Method: as §1

[5] = system: A549/ATCC; assay: NCI 60 cell assay, NSCLC A549/ATCC; conditions: Homo sapiens, 48 h, drug exposure two days, SRB endpoint, read-out: GI-50 value
Method: as §1

[6] = system: EKVX; assay: NCI 60 cell assay, NSCLC EKVX; conditions: Homo sapiens, 48 h, drug exposure two days, SRB endpoint, read-out: GI-50 value
Method: as §1

[7] = system: HOP-62; assay: NCI 60 cell assay, NSCLC HOP-62; conditions: Homo sapiens, 48 h; HOP-62 (NSCLC); drug exposure two days, SRB endpoint; read-out: GI-50 value
Method: as §1

[8] = system: HCT-15; assay: NCI 60 cell assay, colon HCT-15; conditions: Homo sapiens, 48 h; HCT-15 (colon); drug exposure two days, SRB endpoint; read-out: GI-50 value
Method: as §1

[9] = system: SF-268; assay: NCI 60 cell assay, CNS SF-268; conditions: Homo sapiens, 48 h; SF-268 (CNS); drug exposure two days, SRB endpoint; read-out: GI-50 value
Method: as §1

[10] = system: SF-539; assay: NCI 60 cell assay, CNS SF-539; conditions: Homo sapiens, 48 h; SF-539 (CNS); drug exposure two days, SRB endpoint; read-out: GI-50 value
Method: as §1

[11] = system: SNB-19; assay: NCI 60 cell assay, CNS SNB-19; conditions: Homo sapiens, 48 h; SNB-19 (CNS); drug exposure two days, SRB endpoint; read-out: GI-50 value
Method: as §1

[12] = system: SNB-75; assay: NCI 60 cell assay, CNS SNB-75; conditions: Homo sapiens, 48 h; SNB-75 (CNS); drug exposure two days, SRB endpoint; read-out: GI-50 value
Method: as §1

[13] = system: LOX IMVI; assay: NCI 60 cell assay, melanoma LOX IMVI; conditions: Homo sapiens, 48 h, drug exposure two days, SRB endpoint, read-out: GI-50 value
Method: as §1

[14] = system: MALME-3M; assay: NCI 60 cell assay, melanoma MALME-3M; conditions: Homo sapiens, 48 h; MALME-3M (melanoma); drug exposure two days, SRB endpoint; read-out: GI-50 value
Method: as §1

[15] = system: M14; assay: NCI 60 cell assay, melanoma M14; conditions: Homo sapiens, 48 h, drug exposure two days, SRB endpoint, read-out: GI-50 value
Method: as §1

[16] = system: SK-MEL-2; assay: NCI 60 cell assay, melanoma SK-MEL-2; conditions: Homo sapiens, 48 h; SK-MEL-2 (melanoma); drug exposure two days, SRB endpoint; read-out: GI-50 value
Method: as §1

[17] = system: UACC-62; assay: NCI 60 cell assay, melanoma UACC-62; conditions: Homo sapiens, 48 h; UACC-62 (melanoma); drug exposure two days, SRB endpoint; read-out: GI-50 value
Method: as §1

[18] = system: OVCAR-8; assay: NCI 60 cell assay, ovarian OVCAR-8; conditions: Homo sapiens, 48 h; OVCAR-8 (ovarian); drug exposure two days, SRB endpoint; read-out: GI-50 value
Method: as §1

[19] = system: NCI/ADR-RES; assay: NCI 60 cell assay, ovarian NCI/ADR-RES; conditions: Homo sapiens, 48 h, drug exposure two days, SRB endpoint, read-out: GI-50 value
Method: as §1

[20] = system: SK-OV-3; assay: NCI 60 cell assay, ovarian SK-OV-3; conditions: Homo sapiens, 48 h; SK-OV-3 (ovarian); drug exposure two days, SRB endpoint; read-out: GI-50 value
Method: as §1

[21] = system: 786-0; assay: NCI 60 cell assay, renal 786-0; conditions: Homo sapiens, 48 h; 786-0 (renal); drug exposure two days, SRB endpoint; read-out: GI-50 value
Method: as §1

[22] = system: CAKI-1; assay: NCI 60 cell assay, renal CAKI-1; conditions: Homo sapiens, 48 h; CAKI-1 (renal); drug exposure two days, SRB endpoint; read-out: GI-50 value
Method: as §1

[23] = system: RXF 393; assay: NCI 60 cell assay, renal RXF 393; conditions: Homo sapiens, 48 h; RXF 393 (renal); drug exposure two days, SRB endpoint; read-out: GI-50 value
Method: as §1

[24] = system: SN12C; assay: NCI 60 cell assay, renal SN12C; conditions: Homo sapiens, 48 h, drug exposure two days, SRB endpoint, read-out: GI-50 value
Method: as §1

[25] = system: TK-10; assay: NCI 60 cell assay, renal TK-10; conditions: Homo sapiens, 48 h; TK-10 (renal); drug exposure two days, SRB endpoint; read-out: GI-50 value
Method: as §1

[26] = system: MDA-MB-231/ATCC; assay: NCI 60 cell assay, breast MDA-MB-231/ATCC; conditions: Homo sapiens, 48 h; MDA-MB-231/ATCC (breast); drug exposure two days, SRB endpoint; read-out: GI-50 value
Method: as §1

[27] = system: T-47D; assay: NCI 60 cell assay, breast T-47D; conditions: Homo sapiens, T47D, 48 h; T-47D (breast); drug exposure two days, SRB endpoint; read-out: GI-50 value
Method: as §1

SMILES | GI50 [1] [µM] | GI50 [2] [µM] | GI50 [3] [µM] | GI50 [4] [µM] | GI50 [5] [µM] | GI50 [7] [µM] | GI50 [8] [µM] | GI50 [9] [µM] | GI50 [10] [µM] | GI50 [11] [µM] | GI50 [12] [µM] | GI50 [13] [µM] | GI50 [14] [µM] | GI50 [15] [µM] | GI50 [16] [µM] | GI50 [17] [µM] | GI50 [18] [µM] | GI50 [19] [µM] | GI50 [20] [µM] | GI50 [21] [µM] | further results
CC1=C2[C@@H](CC1)[C@]1(C)O[C@@](c3ccccc3)(C[C@H]1OC(=O)CO)[C@H]2OC(=O)C=Cc1ccccc1 [(Ir), (3aR,4S,5R,7R,8S)-5-(2-hydroxyacetoxy)-1,4-dimethyl-7-phenyl-2,3,3a,4,5,6,7,8-octahydro-4,7-epoxyazulen-8-yl cinnamate] | 20 | 16 | 12 | 11 | 15 | 18 | 13 | 1.4 | 18 | 22 | 15 | 17 | 20 | 17 | 16 | 15 | 0.26 | 0.34 | 19 | 14 | GI50 [6]: 15 µM; GI50 [22]: 13 µM; GI50 [23]: 0.027 µM; GI50 [24]: 11 µM; GI50 [25]: 23 µM; GI50 [26]: 19 µM; GI50 [27]: 11 µM
CC1=C2[C@@H](CC1)[C@]1(C)O[C@@](C(C)C)(C[C@H]1OC(=O)CO)[C@H]2OC(=O)/C=C/c1ccccc1 [Compound (Ih)] | 42 | 35 | 40 | 32 | 33 | 36 | 32 | 2.6 | 40 | 39 | 2.9 | 42 | 43 | 43 | 44 | 100 | 0.09 | 0.13 | 44 | 35 | GI50 [22]: 1.07 µM; GI50 [23]: 0.13 µM; GI50 [24]: 20 µM; GI50 [25]: 100 µM; GI50 [26]: 39 µM; GI50 [27]: 27 µM
CC1=C2[C@@H](CC1)[C@]1(C)O[C@@](C(C)C)(C[C@H]1OC(=O)CO)[C@H]2OC(=O)C1CC1c1ccccc1 (stereo partly drawn) [Compound (Ij), (3aR,4S,5R,7R,8S)-5-(2-hydroxyacetoxy)-7-isopropyl-1,4-dimethyl-2,3,3a,4,5,6,7,8-octahydro-4,7-epoxyazulen-8-yl-2-phenylcyclopropane-1-carboxylate] | 18 | 14 | 9 | 14 | 13 | 17 | 13 | 14 | 17 | 17 | 15 | 15 | 17 | 13 | 16 | 12 | 13 | 12 | 17 | 15 | GI50 [6]: 13 µM; GI50 [22]: 12 µM; GI50 [23]: 0.069 µM; GI50 [24]: 7.4 µM; GI50 [25]: 17 µM; GI50 [26]: 15 µM; GI50 [27]: 4.6 µM
CC1=C2[C@@H](CC1)[C@]1(C)O[C@@](C3CC3)(C[C@H]1OC(=O)CO)[C@H]2OC(=O)C=Cc1ccccc1 [Compound (Is), (3aR,4S,5R,7R,8S)-7-cyclopropyl-5-(2-hydroxyacetoxy)-1,4-dimethyl-2,3,3a,4,5,6,7,8-octahydro-4,7-epoxyazulen-8-yl cinnamate] | 19 | 12 | 16 | 17 | 14 | 16 | 14 | 1.6 | 17 | 19 | 13 | 17 | 16 | 17 | 19 | 15 | 0.054 | 0.071 | 16 | 13 | GI50 [6]: 14 µM; GI50 [22]: 11 µM; GI50 [23]: 0.014 µM; GI50 [24]: 0.052 µM; GI50 [25]: 19 µM; GI50 [26]: 18 µM; GI50 [27]: 14 µM
